Patent US9631001B2, “Peptide antagonists of the vasopressin-2 receptor” (COMMISSARIAT A L'ENERGIE ATOMIQUE ET AUX ENERGIES …, priority 2012, dated 2017)

Tests used:
[1] = molecular target: vasopressin V2 receptor subtype (V2R) (Homo sapiens, UniProt P30518); assay: 3H-AVP competition binding on V2R membranes; conditions: affinity for the V2R, equilibrium binding, 3H-AVP (FIG. 2)
157 GPCRs = assay: FLIPR agonist/antagonist profiling on 157 GPCRs; assay type: cell-based; conditions: 1 μM U-Da2a
Description: Percentage activation and percentage inhibition values were determined on each GPCR. […] Percentage inhibition values were determined upon addition of a reference agonist at an estimated EC80 concentration. All wells were prepared using EMD Millipore's GPCRProfiler® Assay Buffer. The GPCRProfiler® Assay Buffer was a modified Hanks Balanced Salt Solution (HBSS) where HBSS was supplemented to contain 20 mM HEPES and 2.5 mM Probenecid at pH7.4. […] The agonist assay was a total of 180 seconds and was used to assess each compound's ability to activate each GPCR assayed. […] The antagonist assay was conducted using the same assay plate and the same apparatus that was used for the agonist assay. All assay plate data were subjected to appropriate baseline corrections. After baseline corrections were applied, maximum fluorescence values were exported and data processed to calculate percentage activation (relative to Emax reference agonist and vehicle control values), percentage inhibition (relative to EC80 and vehicle control values), and additional statistical values (i.e. Z′, percentage variation between replicate data values) to assess the quality of each plate. Where assay plate data were rejected, additional experiments were conducted.

Kir2.1 = molecular target: T1, Kir2.1 (Homo sapiens, UniProt P63252); assay: IonWorks electrophysiological assay; assay type: cell-based; conditions: 1 μM
T1 construct: expressed in transfected cells
T1 sequence (P63252 1-427): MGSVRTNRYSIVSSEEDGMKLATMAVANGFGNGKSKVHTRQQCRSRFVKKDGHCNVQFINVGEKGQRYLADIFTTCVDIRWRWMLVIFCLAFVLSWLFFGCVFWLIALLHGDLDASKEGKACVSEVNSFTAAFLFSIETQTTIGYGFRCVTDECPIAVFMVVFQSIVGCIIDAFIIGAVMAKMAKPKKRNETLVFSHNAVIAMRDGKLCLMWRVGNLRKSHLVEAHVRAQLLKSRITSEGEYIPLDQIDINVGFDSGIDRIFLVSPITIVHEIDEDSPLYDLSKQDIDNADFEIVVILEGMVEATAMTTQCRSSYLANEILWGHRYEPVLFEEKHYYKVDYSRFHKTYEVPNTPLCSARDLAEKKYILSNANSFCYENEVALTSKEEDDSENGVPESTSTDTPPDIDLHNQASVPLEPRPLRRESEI
Description: (§1) The stock solution was transferred to a master plate and into assay plates where 2 μl per well of the solution were placed. On the day of the assay, 198 μl of external solution containing the appropriate DMSO concentration was added and mixed thoroughly. This provided a 1:100 dilution. A further 1:3 dilution occurred upon addition to the cells in the IonWorks, giving a 1:300 dilution in total. On each assay plate, at least 8 wells were reserved for vehicle control (0.3% DMSO) and at least 8 wells for each positive control specific to the cell line tested. The positive controls were tested at a maximal blocking and an approximate IC50 concentration. The compounds used for positive controls: Nav1.5 100 μM and 5 mM Lidocaine, Kv4.3/KChIP2 20 μM and 500 μM Quinidine, Cav1.2 1 μM and 100 μM Nitrendipine, Kv1.5 300 μM and 10 mM 4-AP, KCNQ1/minK 10 μM and 100 μM Chromanol 293B, hERG 0.1 μM and 1 μM Cisapride, HCN4 50 μM and 3 mM Cesium, Kir2.1 20 μM and 500 μM Barium.

Kv1.5 = molecular target: T2, Kv1.5 (Homo sapiens, UniProt P22460); assay: IonWorks electrophysiological assay; assay type: cell-based; conditions: 1 μM
T2 construct: expressed in transfected cells
Description: as §1

hERG = molecular target: T3, hERG (Homo sapiens, UniProt Q12809); assay: IonWorks electrophysiological assay; assay type: cell-based; conditions: 1 μM
T3 construct: expressed in transfected cells
Description: as §1

CD1^pcy/pcy mice [2] = assay: Diuretic and urine osmolarity effect, single and increasing doses; assay type: in vivo, mouse
Description: The toxin was dissolved in 0.9% NaCl at a concentration of 1 mg/ml. Adult CD1^pcy/pcy (Takahashi et al., J. Urol., 1986, 135, 1280-1283, and J. Am. Soc. Nephrol., 1991, 1, 980-989 and Olbrich et al., Nature Genetics, 2003, 34, 455-459) and adult C57BL/6 mice were injected intraperitoneally and subcutaneously with the toxin at doses of 1, 0.1 and 0.01 μmol toxin/kg of body weight. One, three and five days after the first injection the mice were kept for 24 hours in metabolic cages. The collected urine was centrifuged for 30 minutes at 14,000 rpm. Urine osmolality (mOs/kg) was determined with a Knauer osmometer, urine volume (μl) was measured with a pipette.

CD1^pcy/pcy mice [3] = assay: Long-term administration experiment (99 days); assay type: in vivo, mouse; conditions: 0.1 μmol/kg/day i.p.
Description: The toxin was dissolved in 0.9% NaCl at a concentration of 1 mg/ml and administered intraperitoneally to adult CD1^pcy/pcy mice at a dose of 0.1 μmol/kg/day. At 0, 30 70 and 99 days, urine was collected for 24 hours in metabolic cages and urine volume and urine osmolarity were determined.

CD1^pcy/pcy mice [4] = assay: Cyst formation in pcy mice (kidney weight, cyst number); assay type: in vivo, mouse; conditions: 0.1 μmol/kg/day i.p., 99 days
Description: The toxin was dissolved in 0.9% NaCl at a concentration of 1 mg/ml. 10 week-old CD1^pcy/pcy mice were injected intraperitoneally with the toxin at a dose of 0.1 μmol toxin/kg of body weightday for 99 days. Then the mice were perfusion-fixed with 4% paraformaldehyde/1× phosphate-buffered saline, the kidneys and hearts were taken out and weighed. Then, the ratio of kidney weight or heart weightbody weight and kidney weightheart weight was calculated to evaluate an effect of the toxin on cyst formation. The kidneys were embedded in paraffin. Transverse kidney sections were stained with hematoxylin and eosin. Cyst number was determined using the program ImageJ and related to the size of the section thus arriving at the relative cyst number.

V2R = V2R (Homo sapiens, UniProt P30518); assay: AVP-induced MAP kinase phosphorylation (HTRF) in tsA cells expressing V2R; assay type: cell-based; design: expressed in transfected cells
Description: Eight hours and twenty-four hours later, the cells were starved with serum-free medium and stimulated another twenty-seven hours later. […] In a 384 well plate, to 16 μl of lysed cells first 2 μl of the antibody against phosphorylated ERK labeled with acceptor fluorophore (AC-ERK-P-d2 emitting at 665 nm) and then 2 μl of the antibody against total ERK labeled with donor fluorophore (AC-ERK-K emiting at 620 nm) were added. When ERK phosphorylation occurs, the acceptor in close vicinity of the donor is able to emit at 665 nm producing the FRET signal. The increase in the 665/620 ratio corresponds to the increase in MAP kinase phosphorylation. Two hours later, RT-FRET was measured on a laser-based HTRF® reader Rubystar with Rubystar software (BMG LABTECH).

[5] = i.p. or s.c. injection at 1 μmol/kg, 24 h urine, vs basal state

T3 sequence (Q12809 whole entry): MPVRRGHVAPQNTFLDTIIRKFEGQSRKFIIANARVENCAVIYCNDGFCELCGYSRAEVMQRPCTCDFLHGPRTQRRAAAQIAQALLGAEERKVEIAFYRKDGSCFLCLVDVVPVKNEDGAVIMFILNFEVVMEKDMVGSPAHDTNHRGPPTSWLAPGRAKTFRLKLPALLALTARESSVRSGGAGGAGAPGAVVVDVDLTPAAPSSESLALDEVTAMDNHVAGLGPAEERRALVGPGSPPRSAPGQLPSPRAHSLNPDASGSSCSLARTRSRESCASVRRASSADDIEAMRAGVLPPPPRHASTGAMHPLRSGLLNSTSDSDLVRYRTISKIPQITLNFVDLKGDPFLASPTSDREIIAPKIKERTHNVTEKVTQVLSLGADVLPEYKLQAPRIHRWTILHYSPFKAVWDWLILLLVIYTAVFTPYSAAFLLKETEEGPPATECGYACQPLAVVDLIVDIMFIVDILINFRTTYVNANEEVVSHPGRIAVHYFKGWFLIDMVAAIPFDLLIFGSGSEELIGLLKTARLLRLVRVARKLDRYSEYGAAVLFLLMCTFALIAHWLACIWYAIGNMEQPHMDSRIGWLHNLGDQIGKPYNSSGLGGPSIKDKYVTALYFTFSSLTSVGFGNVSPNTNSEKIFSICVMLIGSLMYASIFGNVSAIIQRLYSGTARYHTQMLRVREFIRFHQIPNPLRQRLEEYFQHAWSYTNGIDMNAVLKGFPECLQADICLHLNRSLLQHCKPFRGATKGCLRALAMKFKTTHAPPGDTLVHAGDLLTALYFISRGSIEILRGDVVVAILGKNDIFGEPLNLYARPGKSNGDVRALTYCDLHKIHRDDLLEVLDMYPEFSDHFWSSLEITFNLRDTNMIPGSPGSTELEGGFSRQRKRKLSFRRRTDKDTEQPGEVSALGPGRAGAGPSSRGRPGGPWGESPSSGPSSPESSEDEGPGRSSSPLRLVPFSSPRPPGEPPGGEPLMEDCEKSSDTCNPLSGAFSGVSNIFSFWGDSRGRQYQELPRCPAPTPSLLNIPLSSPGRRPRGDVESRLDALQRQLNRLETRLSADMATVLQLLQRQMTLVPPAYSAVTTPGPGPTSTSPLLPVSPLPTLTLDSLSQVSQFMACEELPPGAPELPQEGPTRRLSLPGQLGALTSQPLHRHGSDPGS
T2 sequence (P22460 whole entry): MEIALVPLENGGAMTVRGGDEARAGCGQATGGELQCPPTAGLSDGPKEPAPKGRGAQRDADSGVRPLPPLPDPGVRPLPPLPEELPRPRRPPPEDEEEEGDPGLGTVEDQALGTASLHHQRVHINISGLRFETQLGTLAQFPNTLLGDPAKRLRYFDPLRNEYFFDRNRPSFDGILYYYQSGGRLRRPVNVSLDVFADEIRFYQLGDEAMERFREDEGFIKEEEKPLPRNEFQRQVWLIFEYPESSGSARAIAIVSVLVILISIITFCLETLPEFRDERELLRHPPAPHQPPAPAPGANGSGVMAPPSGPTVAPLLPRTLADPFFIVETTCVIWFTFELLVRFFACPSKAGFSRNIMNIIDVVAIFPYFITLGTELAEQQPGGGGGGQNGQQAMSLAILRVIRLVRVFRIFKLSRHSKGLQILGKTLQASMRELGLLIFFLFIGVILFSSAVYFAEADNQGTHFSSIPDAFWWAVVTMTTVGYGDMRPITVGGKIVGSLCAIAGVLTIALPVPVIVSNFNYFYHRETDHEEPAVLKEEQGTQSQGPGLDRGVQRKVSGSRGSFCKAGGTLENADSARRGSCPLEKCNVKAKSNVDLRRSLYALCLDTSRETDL
Chain of vasopressin V2 receptor subtype (V2R) (P30518 whole entry): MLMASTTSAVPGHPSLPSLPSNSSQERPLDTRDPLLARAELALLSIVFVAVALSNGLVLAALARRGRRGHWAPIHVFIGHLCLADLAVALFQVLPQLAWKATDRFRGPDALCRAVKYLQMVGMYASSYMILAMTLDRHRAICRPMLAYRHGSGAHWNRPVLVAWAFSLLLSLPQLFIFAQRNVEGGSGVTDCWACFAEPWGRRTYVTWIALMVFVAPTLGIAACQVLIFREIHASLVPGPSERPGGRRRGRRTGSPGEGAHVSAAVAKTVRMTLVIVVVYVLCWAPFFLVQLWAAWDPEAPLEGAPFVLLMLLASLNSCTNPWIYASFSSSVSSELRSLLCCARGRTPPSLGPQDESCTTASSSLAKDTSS
Chain of V2R (P30518 whole entry): as above

## CC[C@H](C)[C@@H]1NC(=O)[C@H]([C@@H](C)O)NC(=O)[C@H](CO)NC(=O)[C@H](Cc2ccccc2)NC(=O)[C@H](CCCNC(=N)N)NC(=O)[C@H](CC(N)=O)NC(=O)[C@H](C)NC(=O)[C@H](CC(N)=O)NC(=O)CNC(=O)[C@H](CCCCN)NC(=O)[C@@H]2CSSC[C@@H]3NC(=O)[C@@H]4CCCN4C(=O)CNC(=O)[C@@H]4CCCN4C(=O)[C@H](CCCCN)NC(=O)[C@H](C(C)C)NC(=O)[C@@H]4CCCN4C(=O)[C@H](CC(C)C)NC(=O)[C@H](CC(N)=O)NC(=O)[C@@H](NC(=O)[C@H](Cc4ccccc4)NC(=O)[C@H](CO)NC(=O)[C@@H]4CCCN4C(=O)[C@@H](N)CCCNC(=N)N)CSSC[C@@H](C(=O)N[C@H](C(=O)NCC(=O)O)C(C)C)NC(=O)[C@H]([C@@H](C)O)NC(=O)[C@H](CCCNC(=N)N)NC(=O)[C@H](CCCNC(=N)N)NC(=O)[C@H](CSSC[C@H](NC(=O)[C@H](CCCCN)NC(=O)[C@H](CC(N)=O)NC(=O)[C@H]([C@@H](C)O)NC(=O)[C@H](CCCCN)NC(=O)[C@H](CCC(N)=O)NC(=O)[C@H](CO)NC(=O)[C@H](Cc4ccc(O)cc4)NC(=O)[C@H](Cc4ccc(O)cc4)NC(=O)[C@H](Cc4ccccc4)NC(=O)[C@H](C)NC(=O)[C@H](CO)NC(=O)[C@H](Cc4ccccc4)NC(=O)[C@H](Cc4ccccc4)NC(=O)CNC(=O)[C@H](CC(N)=O)NC3=O)C(=O)N[C@@H](Cc3c[nH]cn3)C(=O)N[C@@H](CO)C(=O)N[C@@H](Cc3ccccc3)C(=O)N[C@@H]([C@@H](C)O)C(=O)N[C@@H](Cc3ccc(O)cc3)C(=O)NCC(=O)NCC(=O)N2)NC(=O)[C@H](CCCCN)NC(=O)[C@H](CCC(=O)O)NC1=O [U-Da2a]
[1]
  Ki: 2 to 5 nM
157 GPCRs
  agonist and antagonist activity on 157 GPCRs: detected only on V2R
Kir2.1
  inhibition of Kir2.1: did not appear to exhibit significant inhibition
Kv1.5
  inhibition of Kv1.5: did not appear to exhibit significant inhibition
hERG
  inhibition of hERG: did not appear to exhibit significant inhibition
CD1^pcy/pcy mice [2]; i.p.
  dose sufficient to observe the maximal effect: 0.1 µmol/kg
CD1^pcy/pcy mice [2]; [5]
  urine osmolarity: strong decrease in osmolarity
  urine volume: strong increase in urine volume
CD1^pcy/pcy mice [2]; i.p., 1, 0.1 and 0.01 μmol/kg
  diuretic effect at increasing doses: dose-dependent diuretic effect
  urine osmolarity at increasing doses: decrease in urine osmolarity
CD1^pcy/pcy mice [3]
  toxic effect after long-term daily injections: No toxic effect was detectable
CD1^pcy/pcy mice [4]
  kidney weight: reduces kidney weight
CD1^pcy/pcy mice [4]; histology
  number of cysts: significantly reduces the number of cysts
V2R
  Kb: 126 nM
